# Data reported in patent US9603896B2, “Peptide compounds and methods of production and use thereof” (priority 2012, dated 2017).
# Like-named read-outs stand apart in the source and are kept apart here. Ends that are not written are not given here.
# Legend:
# [1] = test system: mouse cornea; assay: In vivo model of corneal wound healing (corneal epithelial abrasion)
# Experimental: The in vivo model of wound healing was carried out using a disposable biopsy punch (2 mm, Miltex, York, Pa.) to demarcate the mouse cornea and a 0.5 mm burr using the AlgerBrush II (The Alger Company, Inc., Lago Vista, Tex.) to remove the corneal epithelium. The corneal abrasions were treated at 0 and 16 hours with peptide 95-122 (10^−5 M), peptide 120-146WH (10^−6 M and 10^−8M), peptide 120-146WR ((10^−6 M and 10^−8M), or vehicle control (0.9% sodium chloride, pH 5.5, Baxter, Deerfield, Ill.). Corneal abrasions were visualized using sterile fluorescein sodium ophthalmic strips USP (Fluorets®, Chauvin Laboratory, Aubenas, France) dampened with sterile PBS. Images were taken at 0, 16, and 24 hours immediately following fluorescein staining.
# Mice were anesthetized using ketamine (100 mg/kg; Bionichepharma, LLC., St. Lake Forrest, Ill.) and xylazine ([…]; Rompun; Bayer Corp., Shawnee Mission, Kans.), and the right cornea was wounded as follows. A disposable biopsy punch (2 mm, Miltex, York, Pa.) was used to demarcate the mouse cornea. The corneal epithelium was carefully removed within the 2 mm demarcated area with a 0.5 mm burr using the AlgerBrush II (The Alger Company, Inc., Lago Vista, Tex.). The corneal abrasions were treated at 0 and 16 hours with HB-EGF (250 ng/ml), rCAP37 (250 ng/ml), or vehicle control (0.9% sodium chloride, pH 5.5, Baxter, Deerfield, Ill.). Corneal abrasions were visualized using sterile fluorescein sodium ophthalmic strips USP (FLUORETS®, Chauvin Laboratory, Aubenas, France) dampened with sterile PBS. Images were taken at 0, 16, 24, and 48 hours immediately following fluorescein staining using a surgical microscope equipped with a camera (Carl Zeiss OPMI VISU 140, Carl Zeiss Surgical, Inc., Oberkochen, Germany). The areas of the open wound were quantitated using ImageJ software (US National Institutes of Health), and the results were reported as the percentage of wound closure.
# Whole mouse eyes were collected for histology at 0, 6, 16, 24, and 48 hours post wounding and were immediately placed in Prefer fixative (Anatech LTD., Battle Creek, Mich.) for 20 minutes before being transferred to 70% ethanol. Tissues were paraffin-embedded and cut at a thickness of 5 μm, mounted on SUPERFROSTPLUS® slides (Statlab Medical Products, Lewisville, Tex.), and subsequently deparaffinized, rehydrated, and washed in deionized water. Sections were stained with hematoxylin (Leica Microsystems, Buffalo Grove, Ill.) and rinsed twice in deionized water before being washed in Blue Buffer (Leica Microsystems). The sections were finally washed in deionized water and 95% ethanol prior to being counterstained with eosin (Leica Microsystems). Sections were dehydrated in ethanol and cleared in xylene.
# [2] = test system: Pseudomonas aeruginosa ATCC® 27853™; format: cell-based; settings: 180 minutes
Sequence,"amount of corneal wound healing vs vehicle-treated ([1]; 10^−8M or 10^−6M at 0 and 16 hours, closure at 16 and 24 hours)","reduction of CFU (FIG. 14) ([2]; pH 5.5, highest concentrations (150 μg/ml)) [logs]","reduction of CFU/ml ([2]; pH 7.2, highest concentrations of peptides (25 μM)) [logs]","bactericidal activity against Pseudomonas aeruginosa ([2]; pH 7.2, peptides at 25 μM)",corneal wound healing (wound closure at 16 and 24 hours) vs vehicle ([1]; 10^−5 M at 0 and 16 hours),"bactericidal activity against Pseudomonas aeruginosa ([2]; pH 5.5, peptides up to 25 μM)"
GTRCQVAGWGSWHSGGRLSRFPRFVNV [Peptide 120-146WH],significantly greater,6,6,as effective as the standard antibiotic gentamicin,,
LDREANLTSSVTILPLPLQNATVEAGTR (listed as Homo sapiens) [Peptide 95-122],,,,not active,promotes corneal wound healing,not active
